In patent publication US20250345190A1, “DRUG ELUTING STENT” (SINO MEDICAL SCIENCES TECHNOLOGY INC., priority 2020, published 2025):
Read-outs that look alike come from different tables or passages of the source.

Legend:
[1] = Porcine-PK study of BuMA Supreme stent (blood, myocardium, coronary artery tissue); type: in vivo, Yucatan Miniature Swine
Procedure: Release of drug from the stent and local, regional, and systemic delivery of sirolimus/rapamycin was quantified by measuring the drug content in stented coronary artery segments. Drug remaining on the stent and found in tissue was measured at 1, 3, 7, 14, 21, 28, […], 90, and 150 day time points. Stents were implanted into Yucatan Miniature Swine pigs. The porcine and human arteries have correlatively similar anatomy and the porcine model is recommended for use in preclinical studies by the FDA, EMEA and Schwartz et al. Thirty-one Yucatan mini-swine were implanted in two of three coronary arteries: the left circumflex artery [LCx], left anterior descending artery [LAD] and right coronary artery [RCA] of each animal, when possible.
Pharmacokinetic analysis was performed for both Rabbit-PK (2014-002) and Porcine-PK (1792-318G) studies, using whole blood, target tissue, and non-target tissue concentration versus time data, using Phoenix WinNonlin (version 8.1) non-compartment analysis function (linear trapezoidal rule for AUC calculations). Nominal dose values and sampling times were used for calculations. Any concentration reported as BLQ (LLOQ<0.100 ng/mL) was set equal to zero. Time points were manually evaluated for the determination of lambda z (R2>0.75), the elimination rate constant, upon which half-life (t1/2) was based.
For the rabbit and porcine study, pharmacokinetic analyses included Cmax, Tmax, Tlast, AUC0-24, AUClast, t1/2, and MRTlast and is presented in Table 2. Below.

[2] = as above; type: in vivo, Yucatan Miniature Swine; conditions: for concentration at 60 days: Yucatan miniature swine, pig, coronary artery, stented segment, other: drug-eluting stent implanted in coronary arteries

Work on `CO[C@H]1C[C@@H]2CC[C@@H](C)[C@@](O)(O2)C(=O)C(=O)N2CCCC[C@H]2C(=O)O[C@H]([C@H](C)C[C@@H]2CC[C@@H](O)[C@H](OC)C2)CC(=O)[C@H](C)/C=C(\C)[C@@H](O)[C@@H](OC)C(=O)[C@H](C)C[C@H](C)/C=C/C=C/C=C/1C` [Rapamycin, Sirolimus (rapamycin)] yielded a concentration at 1 days ([1]; Yucatan miniature swine, pig, coronary artery, stented segment, other: drug-eluting stent implanted in coronary arteries, study day 1, BuMA Supreme stent, porcine, read-out: Arterial drug concentration) of 1630 ± 239 ng/g, a concentration at 3 days ([1]; Yucatan miniature swine, pig, coronary artery, stented segment, other: drug-eluting stent implanted in coronary arteries, study day 3, read-out: Arterial drug concentration) of 2270 ± 735 ng/g and a concentration at 7 days ([1]; Yucatan miniature swine, pig, coronary artery, stented segment, other: drug-eluting stent implanted in coronary arteries, study day 7, read-out: Arterial drug concentration) of 2580 ± 1430 ng/g. The concentration at 14 days ([1]; Yucatan miniature swine, pig, coronary artery, stented segment, other: drug-eluting stent implanted in coronary arteries, study day 14, read-out: Arterial drug concentration) was 3700 ± 1710 ng/g, the concentration at 21 days ([1]; Yucatan miniature swine, pig, coronary artery, stented segment, other: drug-eluting stent implanted in coronary arteries, study day 21, read-out: Arterial drug concentration) was 9850 ± 4720 ng/g and the concentration at 28 days ([1]; Yucatan miniature swine, pig, coronary artery, stented segment, other: drug-eluting stent implanted in coronary arteries, study day 28, read-out: Arterial drug concentration) was 6780 ± 4140 ng/g. For the same molecule, the concentration at 90 days ([1]; Yucatan miniature swine, pig, coronary artery, stented segment, other: drug-eluting stent implanted in coronary arteries, study day 90, read-out: Arterial drug concentration) was 451 ± 188 ng/g, the concentration at 150 days ([1]; Yucatan miniature swine, pig, coronary artery, stented segment, other: drug-eluting stent implanted in coronary arteries, study day 150, read-out: Arterial drug concentration) was 109 ± 12.1 ng/g and the “time at which maximum concentration of the drug in the artery occurred” value ([1]; after implantation, stented area) was 21 days. For the same molecule, the “maximum concentration of the drug in the artery (stented area)” value ([1]; average, 21 days after implantation, porcine coronary artery, BuMA Supreme stent) was 9.85±4.72 μg/gm, the “drug concentration in artery segments proximal and distal to the stented segment, relative to the stented segment value” ([1]; in vivo) was 3-11% and the concentration at 60 days ([2]; by 60 days, read-out: concentration of the drug in the artery (stented area)) was 920 ± 200 ng/g. For the same molecule, the concentration at 60 days ([2]; study day 60, read-out: Arterial drug concentration) was 922 ± 203 ng/g and the “samples with measurable drug levels in the artery” value ([2]; at 154 and 202 days) was “five of the twelve”.
